Values quoted from earlier work, collected in patent US20180177700A1, “HAIR REMOVAL COMPOSITIONS AND METHODS” (priority 2016, published 2018).
Counter-ions that a name gives are not always drawn.

What was measured:
body hair = conditions: all different types of body hair (scalp, facial, axillary, pubic, leg)
[1] = topical, 24 weeks, over 594 patients, versus placebo

| Compound | hair loss induced (body hair) | time after drug application at which hair growth returned to baseline (transient inhibition) (unwanted facial hair; after the drug application) | patients with "Clear" physician reported change in unwanted facial hair (unwanted facial hair; [1]) | patients with "Improved" physician reported change in unwanted facial hair (unwanted facial hair; [1]) | patients with "Marked" physician reported change in unwanted facial hair (unwanted facial hair; [1]) |
| --- | --- | --- | --- | --- | --- |
| CS(=O)(=O)OCCCCOS(C)(=O)=O [busulfan] | ~100% | – | – | – | – |
| NCCCC(N)(C(=O)O)C(F)F (centres unmarked) [eflornithine hydrochloride] | – | eight | 5% | 26% | 27% |
